Source: US20140249135A1, “PIM KINASE INHIBITORS AND METHODS OF THEIR USE” (NOVARTIS AG, priority 2007, published 2014)

Tests used:
Assay type in all cases: biochemical
Pim2 kinase = Pim2 kinase (Homo sapiens, UniProt Q9P1W9); test: Pim2 ATP depletion assay; conditions: read-out: PIM2 IC50;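 note: Luciferase-based luminescent readout of ATP remaining after PIM2 phosphorylates a BAD peptide, final 5 nM enzyme, 4 µM ATP, 10 µM peptide, 2.5% DMSO, run to roughly half ATP consumption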
Pim1 kinase = Pim1 kinase (Homo sapiens, UniProt P11309); test: Pim1 ATP depletion assay; conditions: Pim1 ATP depletion assay; read-out: PIM1 IC50;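 note: Luciferase-luciferin luminescence readout of residual ATP after PIM1 transfers phosphate to a peptide substrate, 40 µM ATP added, reaction run to roughly half ATP consumption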
Pim3 kinase = Pim3 kinase (Homo sapiens, UniProt Q86V86); test: Pim3 ATP depletion assay; conditions: read-out: PIM3 IC50

Sequence of Pim2 kinase (Q9P1W9 whole entry): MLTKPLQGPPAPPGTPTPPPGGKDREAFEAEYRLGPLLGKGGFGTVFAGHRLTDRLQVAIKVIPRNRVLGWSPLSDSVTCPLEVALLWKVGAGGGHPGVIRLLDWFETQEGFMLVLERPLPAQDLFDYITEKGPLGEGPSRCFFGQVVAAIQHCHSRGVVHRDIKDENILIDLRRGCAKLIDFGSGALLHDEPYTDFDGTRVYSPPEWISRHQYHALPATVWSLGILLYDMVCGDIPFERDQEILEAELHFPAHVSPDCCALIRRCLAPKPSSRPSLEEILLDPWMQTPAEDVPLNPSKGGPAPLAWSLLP
Sequence of Pim1 kinase (P11309 whole entry): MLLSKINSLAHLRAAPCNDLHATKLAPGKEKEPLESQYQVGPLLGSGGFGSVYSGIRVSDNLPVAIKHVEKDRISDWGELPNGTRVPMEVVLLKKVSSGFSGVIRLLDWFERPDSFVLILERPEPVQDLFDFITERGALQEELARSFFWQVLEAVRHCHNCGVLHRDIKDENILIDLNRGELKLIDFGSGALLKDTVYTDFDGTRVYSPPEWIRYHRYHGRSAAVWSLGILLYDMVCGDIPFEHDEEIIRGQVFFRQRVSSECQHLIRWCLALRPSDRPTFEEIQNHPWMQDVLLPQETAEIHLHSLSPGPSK

SMILES | IC50 (Pim2 kinase) [nM] | IC50 (Pim1 kinase) [nM] | IC50 (Pim3 kinase) [nM]
Nc1ccc(-c2ccccc2)nc1C(=O)Nc1cnccc1N1C[C@@H](N)C[C@H](O)C1 [Example 582, 3-Amino-6-phenyl-pyridine-2-carboxylic acid (3-amino-5-hydroxy-3,4,5,6-tetrahydro-2H-[1,4′]bipyridinyl-3′-yl)-amide] | 1000 to 10000 | < 1000 | < 1000
COc1ncccc1-c1ccc(N)c(C(=O)Nc2cnccc2-c2ccccc2C)n1 [Example 584, 5-amino-2′-methoxy-[2,3′]bi-pyridinyl-6-carboxylic acid (4-o-tolyl-pyridin-3-yl)-amide] | 1000 to 10000 | < 1000 | < 1000
Cc1ccccc1-c1ccncc1NC(=O)c1nc(-c2ccccc2F)ccc1N [Example 586, 3-amino-6-(2-fluoro-phenyl)-pyridine-2-carboxylic acid (4-o-tolyl-pyridin-3-yl)-amide] | 1000 to 10000 | < 1000 | < 1000
Nc1ncc(Br)nc1C(=O)Nc1cnccc1N1CCCC(N(Cc2ccccc2)Cc2ccccc2)C1 (stereo not drawn) [Example 599, 3-amino-6-bromo-pyrazine-2-carboxylic acid (3-dibenzylamino-3,4,5,6-tetrahydro-2H-[1,4′]bi-pyridinyl-3′-yl)-amide] | 1000 to 10000 | < 1000 | 1000 to 10000
Nc1ccc(-c2ccccc2F)nc1C(=O)Nc1cnccc1-c1cncnc1 [Example 602, 3-amino-6-(2-fluorophenyl)-N-(4-pyrimidin-5-ylpyridin-3-yl)pyridine-2-carboxamide] | 1000 to 10000 | < 1000 | < 1000
Nc1ccc(-c2c(F)cccc2F)nc1C(=O)Nc1cnccc1-c1cc(F)nc(F)c1 [Example 607, 3-amino-N-(2′,6′-difluoro-4,4′-bipyridin-3-yl)-6-(2,6-difluorophenyl)pyridine-2-carboxamide] | < 1000 | < 1000 | < 1000
COc1cc(-c2ccncc2NC(=O)c2nc(-c3c(F)cccc3F)ccc2N)cc(N)n1 [Example 608, 3-Amino-6-(2,6-difluoro-phenyl)-pyridine-2-carboxylic acid (6′-amino-2′-methoxy-[4,4′]bi-pyridinyl-3-yl)-amide] | < 1000 | < 1000 | < 1000
COc1cncc(-c2ccncc2NC(=O)c2nc(-c3ccccc3F)ccc2N)c1 [Example 609, 3-amino-6-(2-fluorophenyl)-N-(5-methoxy-3,4′-bipyridin-3′-yl)pyridine-2-carboxamide] | < 1000 | < 1000 | < 1000
COc1cnccc1-c1ccncc1NC(=O)c1nc(-c2ccccc2F)ccc1N [Example 610, 3-amino-6-(2-fluorophenyl)-N-(3′-methoxy-4,4′-bipyridin-3-yl)pyridine-2-carboxamide] | < 1000 | < 1000 | < 1000
COc1ncccc1-c1ccncc1NC(=O)c1nc(-c2ccccc2F)ccc1N [Example 611, 3-amino-6-(2-fluorophenyl)-N-(2-methoxy-3,4′-bipyridin-3′-yl)pyridine-2-carboxamide] | < 1000 | < 1000 | < 1000
Cc1cnccc1-c1ccncc1NC(=O)c1nc(-c2ccccc2F)ccc1N [Example 613, 3-amino-6-(2-fluorophenyl)-N-(3′-methyl-4,4′-bipyridin-3-yl)pyridine-2-carboxamide] | < 1000 | < 1000 | < 1000
Nc1ccc(-c2ccccc2F)nc1C(=O)Nc1cnccc1-c1ccncc1Cl [Example 615, 3-amino-N-(3′-chloro-4,4′-bipyridin-3-yl)-6-(2-fluorophenyl)pyridine-2-carboxamide] | < 1000 | < 1000 | < 1000
Nc1ccc(-c2ccccc2F)nc1C(=O)Nc1cnccc1-c1ccncc1F [Example 616, 3-amino-N-(3′-fluoro-4,4′-bipyridin-3-yl)-6-(2-fluorophenyl)pyridine-2-carboxamide] | < 1000 | < 1000 | < 1000

Further lines, results first:

IC50 (Pim2 kinase) [nM] | IC50 (Pim1 kinase) [nM] | IC50 (Pim3 kinase) [nM] | SMILES
< 1000 | < 1000 | < 1000 | CC(C)NC(=O)c1ccc(F)c(-c2ccc(F)c(C(=O)Nc3cnccc3N3CCC[C@H](N)C3)n2)c1 [Example 569, 3-Fluoro-6-(2-fluoro-5-isopropylcarbamoyl-phenyl)-pyridine-2-carboxylic acid (3-amino-3,4,5,6-tetrahydro-2H-[1,4′]bipyridinyl-3′-yl)-amide]
< 1000 | < 1000 | < 1000 | N[C@H]1CCCN(c2ccncc2NC(=O)c2nc(-c3ccccc3F)ccc2F)C1 [Example 571, 3-Fluoro-6-(2-fluoro-phenyl)-pyridine-2-carboxylic acid (3-amino-3,4,5,6-tetrahydro-2H-[1,4′]bipyridinyl-3′-yl)-amide]
< 1000 | < 1000 | < 1000 | Nc1cc(-c2ccncc2NC(=O)c2nc(-c3ccc(CN4CCOCC4)cc3)ccc2N)nc(C(F)(F)F)n1 [Example 572, 3-Amino-6-(4-morpholin-4-ylmethyl-phenyl)-pyridine-2-carboxylic acid [4-(6-amino-2-trifluoromethyl-pyrimidin-4-yl)-pyridin-3-yl]-amide]
< 1000 | < 1000 | < 1000 | CN1CCN(c2cc(-c3ccc(N)c(C(=O)Nc4cnccc4-c4cc(N)nc(C(F)(F)F)n4)n3)ccn2)CC1 [Example 573, 5-Amino-2′-(4-methyl-piperazin-1-yl)-[2,4′]bipyridinyl-6-carboxylic acid [4-(6-amino-2-trifluoromethyl-pyrimidin-4-yl)-pyridin-3-yl]-amide]
< 1000 | < 1000 | < 1000 | CN1CCN(c2ccc(-c3ccc(N)c(C(=O)Nc4cnccc4-c4cc(N)nc(C(F)(F)F)n4)n3)cc2)CC1 [Example 574, 3-Amino-6-[4-(4-methyl-piperazin-1-yl)-phenyl]-pyridine-2-carboxylic acid [4-(6-amino-2-trifluoromethyl-pyrimidin-4-yl)-pyridin-3-yl]-amide]
< 1000 | < 1000 | 1000 to 10000 | NC1CC(CO)CN(c2ccncc2NC(=O)c2nc(-c3c(F)cccc3F)ccc2F)C1 (stereo not drawn) [Example 575, 6-(2,6-Difluoro-phenyl)-3-fluoro-pyridine-2-carboxylic acid (5-amino-3-hydroxymethyl-3,4,5,6-tetrahydro-2H-[1,4′]bipyridinyl-3′-yl)-amide]
< 1000 | < 1000 | < 1000 | Nc1ccc(-c2c(F)cccc2F)nc1C(=O)Nc1cnccc1N1CC(N)CC(CO)C1 (stereo not drawn) [Example 576, 3-Amino-6-(2,6-difluoro-phenyl)-pyridine-2-carboxylic acid (5-amino-3-hydroxymethyl-3,4,5,6-tetrahydro-2H-[1,4′]bipyridinyl-3′-yl)-amide]
< 1000 | < 1000 | < 1000 | Nc1ccc(-c2ccccc2)nc1C(=O)Nc1cnccc1N1C[C@@H](N)C[C@@H](F)C1 [Example 578, 3-Amino-6-phenyl-pyridine-2-carboxylic acid (3-amino-5-fluoro-3,4,5,6-tetrahydro-2H-[1,4′]bipyridinyl-3′-yl)-amide]
< 1000 | < 1000 | < 1000 | CCCOc1ccc(F)c(-c2ccc(N)c(C(=O)Nc3cnccc3N3C[C@@H](N)C[C@H](O)C3)n2)c1 [Example 581, 3-Amino-6-(2-fluoro-5-propoxy-phenyl)-pyridine-2-carboxylic acid (3-amino-5-hydroxy-3,4,5,6-tetrahydro-2H-[1,4′]bipyridinyl-3′-yl)-amide]
< 1000 | < 1000 | < 1000 | Cc1ccccc1-c1ccncc1NC(=O)c1nc(-c2c(F)cccc2F)ccc1N [Example 585, 3-amino-6-(2,6-difluoro-phenyl)-pyridine-2-carboxylic acid (4-o-tolyl-pyridin-3-yl)-amide]
< 1000 | < 1000 | < 1000 | Nc1ccc(-c2c(F)cccc2F)nc1C(=O)Nc1cnccc1N1CCCCC1 [Example 588, 3-amino-6-(2,6-difluoro-phenyl)-pyridine-2-carboxylic acid (3,4,5,6-tetrahydro-2H-[1,4′]bipyridinyl-3′-yl)-amide]
< 1000 | < 1000 | < 1000 | Nc1ccc(-c2ccccc2F)nc1C(=O)Nc1cnccc1N1CCCCC1 [Example 589, 3-amino-6-(2-fluoro-phenyl)-pyridine-2-carboxylic acid (3,4,5,6-tetrahydro-2H-[1,4′]bipyridinyl-3′-yl)-amide]
< 1000 | < 1000 | < 1000 | Nc1ccc(-c2ccccc2F)nc1C(=O)Nc1cnccc1-c1cncc(F)c1 [Example 601, 3-amino-N-(5-fluoro-3,4′-bipyridin-3′-yl)-6-(2-fluorophenyl)pyridine-2-carboxamide]
< 1000 | < 1000 | < 1000 | Nc1ccc(-c2ccccc2F)nc1C(=O)Nc1cnccc1-c1cnc(N)c(C(F)(F)F)c1 [Example 603, 3-amino-N-[6-amino-5-(tri-fluoromethyl)-3,4′-bipyridin-3′-yl]-6-(2-fluorophenyl)pyridine-2-carboxamide]
< 1000 | < 1000 | < 1000 | Nc1ccc(-c2ccncc2NC(=O)c2nc(-c3ccccc3F)ccc2N)cn1 [Example 604, 3-amino-N-(6-amino-3,4′-bipyridin-3′-yl)-6-(2-fluoro-phenyl)pyridine-2-carboxamide]
< 1000 | < 1000 | < 1000 | Nc1cc(-c2ccncc2NC(=O)c2nc(-c3ccccc3F)ccc2N)ccn1 [Example 605, 3-amino-N-(2′-amino-4,4′-bipyridin-3-yl)-6-(2-fluorophenyl)pyridine-2-carboxamide]
< 1000 | < 1000 | < 1000 | Nc1ccc(-c2ccccc2F)nc1C(=O)Nc1cnccc1-c1ccncc1 [Example 606, 3-amino-N-4,4′-bipyridin-3-yl-6-(2-fluorophenyl)-pyridine-2-carboxamide]
